# Data published in PMC3199867, “Targeting surface nucleolin with multivalent HB-19 and related Nucant pseudopeptides results in distinct inhibitory mechanisms depending on the malignant tumor cell type” (BMC Cancer, 2011).
# Experiments:
# [1] = test system: surface/cytoplasmic nucleolin; experiment: Down regulation of surface/cytoplasmic nucleolin in MDA-MB 231 cells, immunoblotting; type: cell-based, human; settings: MDA-MB 231, 10 μM, 16 hours, immunoblotting with mAb D3; nuclear nucleolin not affected
# Description: Nucleolin was analyzed by immunoblotting using either the monoclonal antibody (mAb) D3 against nucleolin (kindly provided by Dr. J. S. Deng), or rabbit polyclonal antibodies directed against a synthetic peptide corresponding to the first 26 ([…]) and the last 16 ([…]) amino acid residues of human nucleolin as described before. […] The reacting bands were visualized with an enhanced chemiluminescence (ECL) reagent and by exposure to autoradiography film (Amersham Biosciences). In some experiments, the presence of actin was monitored as a control with mAb anti-actin A-4700 (Sigma). […]
# Figure 2 HB-19 and related Nucant pseudopeptides antagonize surface nucleolin and trigger its down regulation. […] At 48 h post-infection, the β-galactosidase activity was measured in cell extracts directly to monitor HIV entry (Methods). The abscissa gives % Activity of surface nucleolin calculated from the optical density measurements at 570 nm. […] Cytoplasmic (containing cytoplasmic as well as surface nucleolin) and nuclear extracts were analyzed by immunoblotting using mAb D3 as described (Methods)(panels Surface/cytoplasmic NCL, Nuclear NCL). […] HeLa cells in the absence (histogram C) or presence of 1, 2, 5, and 10 μM of N6L were cultured for 7 hours before preparation of cell extracts and immunoblotting as in section B. The intensity of nucleolin protein bands was quantified by using the NIH image software. […]
# [2] = test system: TIII; experiment: Cell death (trypan blue uptake); type: cell-based, murine; settings: subconfluent, N6 or N7 20 μM, mean of at least 2 independent experiments
# Description: (§1) Human breast (MDA-MB-231, MDA-MB-435 [37]), prostate (LNCaP, from American Type Culture Collection, ATCC, Rockville, MD), and cervical (HeLa) epithelial cancer cells were grown in DMEM-glutamax medium (Gibco Invitrogen, Cergy-Pontoise, France) containing GlutaMAX™, 4.5 g/l glucose and supplemented with 10% heat-inactivated (56°C for 30 min) fetal bovine serum (FBS; Hyclone, Thermo Fisher Scientific, Inc). Human SW480 cells are derived from a grade 3-4 colon carcinoma, while the highly metastatic counterpart SW620 is established from the lymph node of a person. Both SW480 and SW620 cells (obtained from Francis Raul, IRCAD) are highly tumorigenic in nude mice. They were cultured in D-MEM, 10% FCS. The murine melanoma TIII cell line was obtained from Armelle Prévost-Blondel. Murine T29 lymphoma cells, obtained from Philippe Kastner (CNRS, Strasbourg), have been established from Ik^L/L tumors from mice carrying a hypomorphic mutation (Ik^L/L) in the Ikaros gene encoding a transcription factor that regulates lymphocyte differentiation, and acts also as a tumor suppressor in T lymphocytes. The T29 cells were cultured in RPMI medium containing 25 mM Hepes pH 7.6, 1 mM sodium pyruvate, and 10% FCS. Human leukemia cell lines, Jurkat (acute T cell leukemia), HuT 78 (cutaneous T lymphocyte), RAJI (Burkitt lymphoma), and HL60 (promyelocytic leukemia) were cultured in RPMI-1640 medium (Gibco) containing GlutaMAX™, and supplemented with 10% heat-inactivated FBS as described before. The wild-type Chinese hamster ovary cell line (CHO K1) was purchased from American Type Culture Collection (ATCC; Rockville, MD). The CHO LRP1-null cell line (CHO-13-5-1) was kindly provided by D. Strickland [47]. They were cultured in Ham's F12K medium. All cells were cultured with 10% (v/v) heat inactivated (56°C, 30 min) fetal bovine serum (FBS) (Roche Molecular Biochemicals, Indianapolis, IN) and 50 international units/mL penicillin-streptomycin (Invitrogen). Cell death was monitored conveniently by uptake of the trypan blue dye due to plasma membrane permeability of dying and/or dead cells.
# [3] = test system: T29; experiment: Cell death (trypan blue uptake); type: cell-based, murine; settings: for % Cell death After 24 hours: T29, freshly passaged, N6 or N7 20 μM, mean of at least 2 independent experiments; for IC50: T29 cells, 0-20 μM, read-out: Cell death: IC50 24 hours post-passage
# Description: as §1
Substance,level of surface/cytoplasmic nucleolin [1],% Cell death After 24 hours [2] [%],% Cell death After 24 hours [3] [%],IC50 [3] [µM]
"Ac-KAKPGKAKPGKAKPG-NH2 [Nucant N7, Presents hexavalently the pseudo-tripeptide Lysψ(CH2N)-Pro-Arg coupled to a similar template as in HB-19]",almost completely abolished,< 5,45,20
"Ac-Lys-Aib-Gly-Lys-Aib-Gly-Lys-Aib-Gly-Lys-Aib-Gly-Lys-Aib-Gly-Lys-Aib-Gly-CONH2 [Nucant N6, Presents hexavalently the pseudo-tripeptide Lysψ(CH2N)-Pro-Arg coupled to the polypeptide template containing Aib]",almost completely abolished,< 5,45,20
